Data as given in PubChem BioAssay AID1963871 (Molecular Pharmacology Branch, DTP, NCI, 2024).

Test system: KRAS-mutant PDC multicell tumor spheroid viability
Experiment: Anticancer human tumor 521955-158-R2-J5-PDC patient-derived pancreatic carcinoma cell line growth inhibition [KRAS2]
Conditions: for viability, T/C: stronger effect = lower value
Summary of the method: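 KRAS-mutant tumor cells were grown as spheroids with HUVEC endothelial cells and human MSCs as stroma. Targeted agents were tested alone and with KRAS pathway inhibitors. Doses started at or near clinical Cmax, or 10 microM, descending half-log.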

[1] = curve of first compound, second compound 0.1 µM
[2] = curve of first compound, second compound 0.316 µM
[3] = curve of first compound, second compound 1 µM
[4] = curve of first compound, second compound 3.16 µM
[5] = curve of first compound, second compound 10 µM
[6] = second compound 0.1 µM, first compound 0.0316 µM
[7] = second compound 0.1 µM, first compound 0.1 µM
[8] = second compound 0.1 µM, first compound 0.316 µM
[9] = second compound 0.1 µM, first compound 1 µM
[10] = second compound 0.1 µM, first compound 3.16 µM
[11] = second compound 0.1 µM, first compound 10 µM
[12] = second compound 0.316 µM, first compound 0.0316 µM
[13] = second compound 0.316 µM, first compound 0.1 µM
[14] = second compound 0.316 µM, first compound 0.316 µM
[15] = second compound 0.316 µM, first compound 1 µM
[16] = second compound 0.316 µM, first compound 3.16 µM
[17] = second compound 0.316 µM, first compound 10 µM
[18] = second compound 1 µM, first compound 0.0316 µM
[19] = second compound 1 µM, first compound 0.1 µM
[20] = second compound 1 µM, first compound 0.316 µM
[21] = second compound 1 µM, first compound 1 µM
[22] = second compound 1 µM, first compound 3.16 µM
[23] = second compound 1 µM, first compound 10 µM
[24] = second compound 3.16 µM, first compound 0.0316 µM
[25] = second compound 3.16 µM, first compound 0.1 µM
[26] = second compound 3.16 µM, first compound 0.316 µM
[27] = second compound 3.16 µM, first compound 1 µM
[28] = second compound 3.16 µM, first compound 3.16 µM
[29] = second compound 3.16 µM, first compound 10 µM
[30] = second compound 10 µM, first compound 0.0316 µM
[31] = second compound 10 µM, first compound 0.1 µM
[32] = second compound 10 µM, first compound 0.316 µM
[33] = second compound 10 µM, first compound 1 µM
[34] = second compound 10 µM, first compound 3.16 µM
[35] = second compound 10 µM, first compound 10 µM
[36] = second compound 0.1 µM, first compound 0.00316 µM
[37] = second compound 0.1 µM, first compound 0.01 µM
[38] = second compound 0.316 µM, first compound 0.00316 µM
[39] = second compound 0.316 µM, first compound 0.01 µM
[40] = second compound 1 µM, first compound 0.00316 µM
[41] = second compound 1 µM, first compound 0.01 µM
[42] = second compound 3.16 µM, first compound 0.00316 µM
[43] = second compound 3.16 µM, first compound 0.01 µM
[44] = curve of first compound, second compound 0.0316 µM
[45] = second compound 0.0316 µM, first compound 0.000316 µM
[46] = second compound 0.0316 µM, first compound 0.001 µM
[47] = second compound 0.0316 µM, first compound 0.00316 µM
[48] = second compound 0.0316 µM, first compound 0.01 µM
[49] = second compound 0.0316 µM, first compound 0.0316 µM
[50] = second compound 0.0316 µM, first compound 0.1 µM
[51] = second compound 0.1 µM, first compound 0.000316 µM
[52] = second compound 0.1 µM, first compound 0.001 µM
[53] = second compound 0.316 µM, first compound 0.000316 µM
[54] = second compound 0.316 µM, first compound 0.001 µM
[55] = second compound 1 µM, first compound 0.000316 µM
[56] = second compound 1 µM, first compound 0.001 µM
[57] = second compound 3.16 µM, first compound 0.000316 µM
[58] = second compound 3.16 µM, first compound 0.001 µM
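Further: viability read after seven days of drug exposure.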

CCNC(=O)CC1N=C(c2ccc(Cl)cc2)c2cc(OC)ccc2-n2c(C)nnc21 (configuration not stated) + CNCc1ccccc1-c1csc(C(C)Nc2nc(C)nc3cc(OC)c(OC)cc23)c1
IC50 [1]: 509 nM | IC50 [2]: 388 nM | IC50 [3]: 360 nM | IC50 [4]: < 31.6 nM | IC50 [5]: < 31.6 nM | viability, T/C [6]: 108% | viability, T/C [7]: 87.9% | viability, T/C [8]: 56.1% | viability, T/C [9]: 41.4% | viability, T/C [10]: 32% | viability, T/C [11]: 31.4% | viability, T/C [12]: 105% | viability, T/C [13]: 93% | viability, T/C [14]: 53.3% | viability, T/C [15]: 34.3% | viability, T/C [16]: 28.6% | viability, T/C [17]: 30.6% | viability, T/C [18]: 99% | viability, T/C [19]: 92.2% | viability, T/C [20]: 51.8% | viability, T/C [21]: 34.9% | viability, T/C [22]: 32.5% | viability, T/C [23]: 31.3% | viability, T/C [24]: 0.37% | viability, T/C [25]: 0.16% | viability, T/C [26]: 0.27% | viability, T/C [27]: 0.08% | viability, T/C [28]: 0.08% | viability, T/C [29]: 0.19% | viability, T/C [30]: 0.15% | viability, T/C [31]: 0.14% | viability, T/C [32]: 0.12% | viability, T/C [33]: 0.8% | viability, T/C [34]: 0.13% | viability, T/C [35]: 0.36%

CCN1CCN(Cc2ccc(Nc3ncc(F)c(-c4cc(F)c5nc(C)n(C(C)C)c5c4)n3)nc2)CC1 + COc1cc2nc(C)nc(NC(C)c3cc(N)cc(C(F)(F)F)c3)c2cc1OC1CCOC1
IC50 [1]: > 1000 nM | IC50 [2]: > 1000 nM | IC50 [3]: > 1000 nM | IC50 [4]: > 1000 nM | IC50 [5]: 464 nM | viability, T/C [36]: 88.2% | viability, T/C [37]: 84.9% | viability, T/C [6]: 79.2% | viability, T/C [7]: 79.9% | viability, T/C [8]: 85.4% | viability, T/C [9]: 76.7% | viability, T/C [38]: 92% | viability, T/C [39]: 89.9% | viability, T/C [12]: 79.4% | viability, T/C [13]: 71.7% | viability, T/C [14]: 85.4% | viability, T/C [15]: 76% | viability, T/C [40]: 93.1% | viability, T/C [41]: 80.2% | viability, T/C [18]: 87.5% | viability, T/C [19]: 77.4% | viability, T/C [20]: 87.7% | viability, T/C [21]: 80.8% | viability, T/C [42]: 90.5% | viability, T/C [43]: 101% | viability, T/C [24]: 89.3% | viability, T/C [25]: 76.7% | viability, T/C [26]: 83.2% | viability, T/C [27]: 73% | viability, T/C (second compound 10 µM, first compound 0.00316 µM): 82.9% | viability, T/C (second compound 10 µM, first compound 0.01 µM): 76% | viability, T/C [30]: 74.4% | viability, T/C [31]: 91% | viability, T/C [32]: 74.7% | viability, T/C [33]: 0.5%

CC(C)NCC(C(=O)N1CCN(c2ncnc3c2C(C)CC3O)CC1)c1ccc(Cl)cc1 (configuration not stated) + CNCc1ccccc1-c1csc(C(C)Nc2nc(C)nc3cc(OC)c(OC)cc23)c1
IC50 [1]: > 10000 nM | IC50 [2]: > 10000 nM | IC50 [3]: 4280 nM | IC50 [4]: < 31.6 nM | IC50 [5]: < 31.6 nM | viability, T/C [6]: 103% | viability, T/C [7]: 104% | viability, T/C [8]: 83.4% | viability, T/C [9]: 77.6% | viability, T/C [10]: 84.1% | viability, T/C [11]: 66.3% | viability, T/C [12]: 101% | viability, T/C [13]: 102% | viability, T/C [14]: 79.9% | viability, T/C [15]: 70.1% | viability, T/C [16]: 67.5% | viability, T/C [17]: 55.9% | viability, T/C [18]: 109% | viability, T/C [19]: 98.5% | viability, T/C [20]: 75.4% | viability, T/C [21]: 66.5% | viability, T/C [22]: 58% | viability, T/C [23]: 38.2% | viability, T/C [24]: 1.5% | viability, T/C [25]: 1.33% | viability, T/C [26]: 1.91% | viability, T/C [27]: 0.59% | viability, T/C [28]: 0.9% | viability, T/C [29]: 0.33% | viability, T/C [30]: 0.61% | viability, T/C [31]: 1.13% | viability, T/C [32]: 0.73% | viability, T/C [33]: 0.33% | viability, T/C [34]: 2.15% | viability, T/C [35]: 0.33%

CN(C)C/C=C/C(=O)Nc1cc2c(Nc3ccc(F)c(Cl)c3)ncnc2cc1O[C@H]1CCOC1 + C=CC(=O)N1CCN(c2nc(OCC3CCCN3C)nc3c2CCN(c2cccc4cccc(C)c24)C3)CC1CC#N
IC50 [44]: > 100 nM | IC50 [1]: > 100 nM | IC50 [2]: > 100 nM | IC50 [3]: > 100 nM | IC50 [4]: < 0.316 nM | viability, T/C [45]: 97.5% | viability, T/C [46]: 104% | viability, T/C [47]: 75.7% | viability, T/C [48]: 73.5% | viability, T/C [49]: 67.9% | viability, T/C [50]: 65.6% | viability, T/C [51]: 83.5% | viability, T/C [52]: 89.3% | viability, T/C [36]: 98.8% | viability, T/C [37]: 70.5% | viability, T/C [6]: 76.7% | viability, T/C [7]: 72.4% | viability, T/C [53]: 77.8% | viability, T/C [54]: 73.2% | viability, T/C [38]: 65.9% | viability, T/C [39]: 56.7% | viability, T/C [12]: 54.7% | viability, T/C [13]: 53.6% | viability, T/C [55]: 73.5% | viability, T/C [56]: 85.1% | viability, T/C [40]: 70.4% | viability, T/C [41]: 65.1% | viability, T/C [18]: 58.8% | viability, T/C [19]: 54.4% | viability, T/C [57]: 4.17% | viability, T/C [58]: 3.27% | viability, T/C [42]: 1.28% | viability, T/C [43]: 1.27% | viability, T/C [24]: 0.96% | viability, T/C [25]: 0.29%

COc1cc(Nc2ncc3c(n2)-c2ccc(Cl)cc2C(c2c(F)cccc2OC)=NC3)ccc1C(=O)O
viability, T/C (compound 0.0316 µM): 50.2% [middle of 5 runs] | viability, T/C (compound 0.1 µM): 39.8% [middle of 5 runs] | viability, T/C (compound 0.316 µM): 45.3% [middle of 5 runs] | viability, T/C (compound 1 µM): 47.9% [middle of 5 runs] | viability, T/C (compound 3.16 µM): 46.5% [middle of 5 runs] | viability, T/C (compound 10 µM): 41.2% [middle of 5 runs] | IC50 (curve of compound): < 31.6 nM

Cn1ncnc1[C@H]1c2n[nH]c(=O)c3cc(F)cc(c23)N[C@@H]1c1ccc(F)cc1 + C=CC(=O)N1CCN(c2nc(OCC3CCCN3C)nc3c2CCN(c2cccc4cccc(C)c24)C3)CC1CC#N
IC50 [44]: > 100 nM | IC50 [1]: > 100 nM | IC50 [2]: > 100 nM | IC50 [3]: > 100 nM | IC50 [4]: < 0.316 nM | viability, T/C [45]: 111% | viability, T/C [46]: 114% | viability, T/C [47]: 103% | viability, T/C [48]: 81.4% | viability, T/C [49]: 91.6% | viability, T/C [50]: 82.5% | viability, T/C [51]: 104% | viability, T/C [52]: 96.9% | viability, T/C [36]: 86.9% | viability, T/C [37]: 85.5% | viability, T/C [6]: 81.3% | viability, T/C [7]: 77.6% | viability, T/C [53]: 99.6% | viability, T/C [54]: 94.4% | viability, T/C [38]: 93.9% | viability, T/C [39]: 72.3% | viability, T/C [12]: 75% | viability, T/C [13]: 66.5% | viability, T/C [55]: 78.3% | viability, T/C [56]: 82.7% | viability, T/C [40]: 78.5% | viability, T/C [41]: 69.2% | viability, T/C [18]: 67.4% | viability, T/C [19]: 62.7% | viability, T/C [57]: 15.8% | viability, T/C [58]: 10.9% | viability, T/C [42]: 10.7% | viability, T/C [43]: 8.52% | viability, T/C [24]: 9.22% | viability, T/C [25]: 8.81%
